Data on 10 compounds can be found in patent US20220024900A1, “Compounds and Their Use for Reducing Uric Acid Levels” (Acquist LLC, priority 2016, published 2022).

Molecules are shown by their SMILES.

xanthine oxidase, sequence (P47989 whole entry, species assumed): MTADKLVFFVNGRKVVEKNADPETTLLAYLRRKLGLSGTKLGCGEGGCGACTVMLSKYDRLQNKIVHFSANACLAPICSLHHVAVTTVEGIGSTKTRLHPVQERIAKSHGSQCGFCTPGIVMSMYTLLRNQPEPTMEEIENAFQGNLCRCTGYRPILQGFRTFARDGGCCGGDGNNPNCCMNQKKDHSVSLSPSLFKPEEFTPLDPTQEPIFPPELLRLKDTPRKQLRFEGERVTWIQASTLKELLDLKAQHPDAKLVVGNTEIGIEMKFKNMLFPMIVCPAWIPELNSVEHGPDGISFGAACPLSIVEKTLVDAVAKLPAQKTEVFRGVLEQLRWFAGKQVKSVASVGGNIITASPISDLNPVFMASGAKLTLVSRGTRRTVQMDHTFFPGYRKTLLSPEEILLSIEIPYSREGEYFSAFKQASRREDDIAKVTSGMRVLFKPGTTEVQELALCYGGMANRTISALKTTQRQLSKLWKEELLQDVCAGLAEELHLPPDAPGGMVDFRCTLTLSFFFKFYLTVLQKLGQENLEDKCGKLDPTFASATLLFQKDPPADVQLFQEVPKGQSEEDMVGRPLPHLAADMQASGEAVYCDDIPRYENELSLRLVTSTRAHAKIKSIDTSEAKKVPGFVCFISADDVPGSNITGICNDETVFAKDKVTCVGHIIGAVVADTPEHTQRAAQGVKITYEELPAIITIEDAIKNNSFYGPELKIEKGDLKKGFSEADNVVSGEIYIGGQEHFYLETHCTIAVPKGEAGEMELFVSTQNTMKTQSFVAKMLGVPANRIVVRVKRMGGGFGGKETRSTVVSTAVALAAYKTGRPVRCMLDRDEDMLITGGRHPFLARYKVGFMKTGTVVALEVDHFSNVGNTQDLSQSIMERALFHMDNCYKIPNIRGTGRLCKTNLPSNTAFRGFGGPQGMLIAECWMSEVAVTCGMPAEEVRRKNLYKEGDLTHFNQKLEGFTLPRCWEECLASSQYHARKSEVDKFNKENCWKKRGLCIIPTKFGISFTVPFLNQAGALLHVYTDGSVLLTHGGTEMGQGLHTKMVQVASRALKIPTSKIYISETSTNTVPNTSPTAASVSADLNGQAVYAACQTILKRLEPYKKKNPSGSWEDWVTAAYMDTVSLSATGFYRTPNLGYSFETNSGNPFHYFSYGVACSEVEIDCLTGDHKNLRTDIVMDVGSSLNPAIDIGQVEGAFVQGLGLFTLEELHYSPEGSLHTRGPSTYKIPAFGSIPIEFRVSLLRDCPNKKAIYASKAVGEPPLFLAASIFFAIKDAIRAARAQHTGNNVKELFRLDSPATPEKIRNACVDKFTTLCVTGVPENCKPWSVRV

This assay concerns the target xanthine oxidase (Homo sapiens, UniProt P47989). In words: Fluorescence-based xanthine oxidase activity assay. Format: biochemical. Particulars: verbal rating.
For the compound `COc1nc(O)c(C(=O)Nc2ccc(-c3cnn[nH]3)cc2)c(=O)[nH]1` [Formula (IIb), N-(4-(3H-1,2,3-triazol-4-yl)phenyl)-4-hydroxy-2-methoxy-6-oxo-1,6-dihydropyrimidine-5-carboxamide], the “inhibition of xanthine oxidase compared to allopurinol” value (“inhibition … compared to allopurinol” below) is on record as “particularly potent inhibitors”. For the compound `CC(C)Sc1nc(O)c(C(=O)Nc2ccc(-c3c[nH]nn3)cc2)c(=O)[nH]1` [Formula (IId), N-(4-(1H-1,2,3-triazol-5-yl)phenyl)-4-hydroxy-2-(isopropylthio)-6-oxo-1,6-dihydropyrimidine-5-carboxamide], the “inhibition … compared to allopurinol” value is recorded as “particularly potent inhibitors”. `N=C(Nc1ccc(-c2cnn[nH]2)cc1)c1c(O)[nH]c(=O)[nH]c1=O` [Formula (Ia), N-(4-(1H-1,2,3-triazol-4-yl)phenyl)-6-hydroxy-2,4-dioxo-1,2,3,4-tetrahydropyrimidine-5-carboximidamide]: the “inhibition … compared to allopurinol” value is “particularly potent inhibitors”.

As for `O=c1[nH]c(O)c(/C(=N\O)Nc2ccc(-c3cnn[nH]3)cc2)c(=O)[nH]1` [Formula (Ic), (E)-N-(4-(1H-1,2,3-triazol-5-yl)phenyl)-N′-hydroxy-2,4,6-trioxohexahydro-pyrimidine-5-carboximidamide], the “inhibition … compared to allopurinol” value is given as “particularly potent inhibitors”.

Turning to `Cn1c(O)c(C(=N)Nc2ccc(-c3cnn[nH]3)cc2)c(=O)n(C)c1=O` [Formula (If), N-(4-(1H-1,2,3-triazol-5-yl)phenyl)-6-hydroxy-1,3-dimethyl-2,4-dioxo-1,2,3,4-tetrahydropyrimidine-5-carboximidamide], the “inhibition … compared to allopurinol” value is given as “particularly potent inhibitors”. For `Cn1c(=O)[nH]c(O)c(C(=O)Nc2ccc(-c3cnn[nH]3)cc2)c1=O` [Formula (Ig), N-(4-(1H-1,2,3-triazol-4-yl)phenyl)-2,4-dihydroxy-1-methyl-6-oxo-1,6-dihydropyrimidine-5-carboxamide] the value was “particularly potent inhibitors”.

In the case of `Cn1c(=O)[nH]c(O)c(C(=N)Nc2ccc(-c3cnn[nH]3)cc2)c1=O` [Formula (Ih)], the “inhibition … compared to allopurinol” value was “particularly potent inhibitors”.

For the compound `Nc1[nH]c(=O)[nH]c(=O)c1C(=O)Nc1ccc(-c2c[nH]nn2)cc1` [Formula (Ik), N-(4-(1H-1,2,3-triazol-5-yl)phenyl)-6-amino-2,4-dioxo-1,2,3,4-tetrahydropyrimidine-5-carboxamide], the “inhibition … compared to allopurinol” value is given as “particularly potent inhibitors”. In the case of `O=c1[nH]c(=O)c2c(Nc3ccc(-c4cnn[nH]4)cc3)noc2[nH]1` [Formula (VIa), 3-((4-(1H-1,2,3-triazol-5-yl)phenyl)amino)isoxazolo[5,4-d]pyrimidine-4,6(5H,7H)-dione], the “inhibition … compared to allopurinol” value is recorded as “particularly potent inhibitors”. For `O=c1[nH]c(=O)c2c(Nc3ccc(-c4cnn[nH]4)cc3)n[nH]c2[nH]1` [Formula (VIb), 3-((4-(1H-1,2,3-triazol-5-yl)phenyl)amino)-1H-pyrazolo[3,4-d]pyrimidine-4,6(5H,7H)-dione] the value was “particularly potent inhibitors”.
